Experimental data from the supplement of paper PMC11451515.

Assays:
Details in all cases: 48 h
[1] = test system: NOMO1; experiment: cell viability relative to DMSO control; higher = less cytotoxic
Summary of the method: (§1)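 NOMO1, SEM and P12-Ichikawa leukemia cells spent at least four passages adapting to each medium before use. They were seeded at 500 cells/well (NOMO1, SEM) or 1000 cells/well (P12-Ichikawa) in 5 μl in 1536-well plates and pin-dosed with library compounds in DMSO at 11 threefold steps from 47 μM down to 0.79 nM. After 48 h at 37°C, CellTiter-Glo One luminescence was read. Viability is reported as a percentage of the DMSO wells on each plate, with cell-free wells as background.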

[2] = test system: P12-Ichikawa; experiment: as above
Summary of the method: as §1

[3] = test system: SEM cells; experiment: as above
Summary of the method: as §1

[4] = test system: NOMO1; experiment: AUC of viability dose-response curve (% viability x log10 dose units); higher = less sensitive
Summary of the method: (§2)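 Library compounds in DMSO were applied for 48 h at 37°C at 11 threefold doses (47 μM to 0.79 nM) to medium-adapted leukemia cells in 1536-well plates holding 500 or 1000 cells/well. Luminescence from CellTiter-Glo One was normalised plate by plate against DMSO and cell-free wells. Area under the curve came from trapezoidal integration of a log-logistic fit, after scaling curves that rose above full viability and discarding those that failed quality control. The fit had four parameters and used log10 doses.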

[5] = test system: P12-Ichikawa; experiment: as above
Summary of the method: as §2

[6] = test system: SEM cells; experiment: as above
Summary of the method: as §2

Cc1ccc(F)c(NC(=O)Nc2ccc(-c3cccc4[nH]nc(N)c34)cc2)c1
cell viability [%]
Details | [1] | [2] | [3]
HPLM + 10% dialyzed FBS, 0.000781 µM | 91.4 | 102 | 91.7
HPLM + 10% dialyzed FBS, 0.00234 µM | 111 | 113 | 92.7
HPLM + 10% dialyzed FBS, 0.00702 µM | 118 | 107 | 86.3
HPLM + 10% dialyzed FBS, 0.0211 µM | 125 | 112 | 76.2
HPLM + 10% dialyzed FBS, 0.0632 µM | 115 | 112 | 59.5
HPLM + 10% dialyzed FBS, 0.19 µM | 111 | 115 | 56.7
HPLM + 10% dialyzed FBS, 0.569 µM | 110 | 115 | 55.1
HPLM + 10% dialyzed FBS, 1.71 µM | 110 | 120 | 62.9
HPLM + 10% dialyzed FBS, 5.12 µM | 117 | 116 | 64.9
HPLM + 10% dialyzed FBS, 15.4 µM | 93.8 | 111 | 64.2
HPLM + 10% dialyzed FBS, 46.1 µM | 86.6 | 81.5 | 14.4
RPMI 5 mM glucose + 10% FBS, 0.000781 µM | 99.6 | 112 | 73.4
RPMI 5 mM glucose + 10% FBS, 0.00234 µM | 125 | 113 | 84.4
RPMI 5 mM glucose + 10% FBS, 0.00702 µM | 121 | 113 | 80.3
RPMI 5 mM glucose + 10% FBS, 0.0211 µM | 108 | 112 | 69.9
RPMI 5 mM glucose + 10% FBS, 0.0632 µM | 123 | 118 | 49.7
RPMI 5 mM glucose + 10% FBS, 0.19 µM | 118 | 126 | 48.4
RPMI 5 mM glucose + 10% FBS, 0.569 µM | 113 | 108 | 41.7
RPMI 5 mM glucose + 10% FBS, 1.71 µM | 115 | 126 | 56
RPMI 5 mM glucose + 10% FBS, 5.12 µM | 118 | 120 | 48.8
RPMI 5 mM glucose + 10% FBS, 15.4 µM | 114 | 132 | 29.9
RPMI 5 mM glucose + 10% FBS, 46.1 µM | 105 | 95.3 | 1.63
RPMI 5 mM glucose + 10% dialyzed FBS, 0.000781 µM | 106 | 105 | 87.5
RPMI 5 mM glucose + 10% dialyzed FBS, 0.00234 µM | 112 | 122 | 91.3
RPMI 5 mM glucose + 10% dialyzed FBS, 0.00702 µM | 108 | 123 | 82.1
RPMI 5 mM glucose + 10% dialyzed FBS, 0.0211 µM | 123 | 122 | 71.1
RPMI 5 mM glucose + 10% dialyzed FBS, 0.0632 µM | 116 | 127 | 65.8
RPMI 5 mM glucose + 10% dialyzed FBS, 0.19 µM | 105 | 127 | 48.7
RPMI 5 mM glucose + 10% dialyzed FBS, 0.569 µM | 120 | 97.2 | 60.6
RPMI 5 mM glucose + 10% dialyzed FBS, 1.71 µM | 117 | 132 | 61.7
RPMI 5 mM glucose + 10% dialyzed FBS, 5.12 µM | 104 | 131 | 57.6
RPMI 5 mM glucose + 10% dialyzed FBS, 15.4 µM | 111 | 116 | 43.5
RPMI 5 mM glucose + 10% dialyzed FBS, 46.1 µM | 87.8 | 92.6 | 8.13

AUC of viability dose-response curve
Details | [4] | [5] | [6]
HPLM + 10% dialyzed FBS | 464 | 470 | 314
RPMI 5 mM glucose + 10% FBS | 472 | 472 | 256
RPMI 5 mM glucose + 10% dialyzed FBS | 471 | 470 | 296
